Experimental data taken from a melting point compilation (Tetko et al.).

| SMILES | melting point |
| --- | --- |
| CC1CCN(C(=O)c2ccc(N)cc2)CC1 | 118 to 120 °C |
| COc1ccc(-c2nn(-c3ccccc3)cc2C(=O)O)cc1 | 244 to 246 °C |
| CC1CN(c2ccc(N)cc2F)CC(C)O1 (configuration not stated) | 116 to 118 °C |
| NC(CC(=O)Nc1ccccc1)=NO | 156 to 158 °C |
| Cc1csc(-c2ccc(N)cc2)n1 | 111 to 113 °C |
| O=C1Nc2ccc(-c3ccccc3)cc2C1=O | 214 to 216 °C |
| CCN1N=C(C(F)(F)F)CC1=O | 169 to 171 °C |
| CC(C)NS(=O)(=O)c1ccc(N)cc1 | 112 to 114 °C |
| C1CCC(NC2=NCCCS2)CC1 | 112 to 114 °C |
| Nc1nc(C2CC2)c(Cc2ccccc2Cl)s1 | 127 to 129 °C |
| N#CCOc1ccc(N)cc1 | 51 to 53 °C |
| Cc1cc(C(=O)N2CCCC2)ccc1N | 124 to 126 °C |
| O=C(O)c1cccnc1Oc1ccc(F)cc1Br | 189 to 191 °C |
| COc1ccc(C)cc1-n1ccc(C(=O)O)n1 | 158 to 160 °C |
| Fc1cc(CCl)c2c(c1)COC(c1ccsc1)O2 (configuration not stated) | 77 to 79 °C |
| Cc1nn(-c2ncccn2)c(N)c1Br | 159 to 161 °C |
| COc1ccccc1Nc1nc2sc(C(=O)O)cc2s1 | 235 to 237 °C |
| N#CCSc1cccc(C(=O)O)c1 | 144 to 146 °C |
| O=[N+]([O-])c1ccc(N2CCNCC2)cn1 | 147 to 149 °C |
| CC(C)(C)OC(=O)NC(C)(C(=O)O)C1CC1 (configuration not stated) | 140 to 142 °C |
| O=C(O)c1ccc(S(=O)(=O)N2CCc3ccccc3C2)cc1 | 272 to 274 °C |
| CN1CCN(S(=O)(=O)c2cccc(N)c2)CC1 | 140 to 142 °C |
| O=C(O)C1CCc2nncn2C1 (configuration not stated) | 279 to 281 °C |
| COC(=O)c1c(C2CC2)csc1N | 72 to 74 °C |

| SMILES | melting point |
| --- | --- |
| CC(CC(=O)O)NC(=O)OCc1ccccc1 (configuration not stated) | 129 to 131 °C |
| CC(=O)N1CCCC(C(N)=O)C1 (configuration not stated) | 146 to 148 °C |
| CC(C)c1ccc(C2(C(=O)O)CCCC2)cc1 | 153 to 155 °C |
| Cc1ccc(C(=O)O)cc1S(=O)(=O)NCC#N | 212 to 214 °C |
| CN(C)C(=O)COc1ccc(N)c(F)c1 | 106 to 108 °C |
| O=C(O)c1ccc(S(=O)(=O)N2CCOCC2)cc1 | 287 to 289 °C |
| OC1CCN(c2ccc(Cl)nn2)CC1 | 109 to 111 °C |
| COC(=O)CCSc1ccc([N+](=O)[O-])cc1C(=O)O | 165 to 167 °C |
| CN(C)C(=O)Sc1cnc2nc(C#N)c(C#N)n2c1 | 180 to 182 °C |
| Cc1cc(C(=O)O)ccc1S(=O)(=O)Cl | 197 to 199 °C |
| O=S1(=O)CCCC(O)C1 (configuration not stated) | 99 to 101 °C |
| NC(=O)C1COc2ccccc2O1 (configuration not stated) | 141 to 143 °C |
| O=C1Nc2cc(Br)ccc2C1=O | 259 to 261 °C |
| Nc1ccc2c(c1)C(=O)N(CC1CC1)C2=O | 163 to 165 °C |
| O=C(O)c1ccnc(C2CC2)c1 | 257 to 259 °C |
| CC(C)(C)C(=O)NC1CCCNC1 (configuration not stated) | 99 to 101 °C |
| O=C(O)CNC(=O)c1ccc(Br)o1 | 91 to 93 °C |
| O=C(O)CCCN1C(=O)CSC1=S | 124 to 126 °C |
| CCc1nnsc1C(=O)NC1CCCCC1 | 80 to 82 °C |
| CC(C)CSc1ccc([N+](=O)[O-])cc1C(=O)O | 189 to 191 °C |
| COC(=O)c1ccc(N)cc1F | 109 to 111 °C |
| Cc1cc(CCC(=O)O)c(C)s1 | 57 to 59 °C |
| O=C(O)Cc1cc2ccccc2[nH]c1=O | 278 to 280 °C |
| COc1cc(C(C)=O)ccc1S(=O)(=O)C(F)F | 134 to 136 °C |

| SMILES | melting point |
| --- | --- |
| Nc1ccc(F)cc1Nc1ccccc1F | 53 to 55 °C |
| NNC(=O)c1ccc2ccccc2n1 | 133 to 135 °C |
| CCc1c(C(C)=O)oc2ccccc12 | 33 to 35 °C |
| OCc1sc(N2CCOCC2)nc1-c1ccccc1 | 118 to 120 °C |
| O=c1c(Cl)c(Cl)cnn1-c1ccc(C(F)(F)F)cn1 | 111 to 115 °C |
| Nc1cc(Cl)c(Cl)c(C(=O)O)c1 | 199 to 201 °C |
| O=C(O)c1sc(-c2ccccc2)cc1OCC(=O)N1CCCCC1 | 164 to 166 °C |
| Cc1c[nH]c(=O)n1-c1cccc(C(=O)O)c1 | 289 to 291 °C |
| CC1CN(S(=O)(=O)c2ccc(NC(=O)CCl)cc2)CC(C)O1 (configuration not stated) | 110 to 112 °C |
| CC(C)c1ccc(N)c(C(=O)O)c1 | 96 to 98 °C |
| Nc1ccc(S(=O)C(F)(F)F)cc1 (configuration not stated) | 76 to 78 °C |
| COc1cc(S(=O)(=O)Cl)c(Cl)cc1C(=O)O | 159 to 161 °C |
| CC(NC(=O)OCC(F)(F)F)c1nncn1C (configuration not stated) | 103 to 105 °C |
| NS(=O)(=O)C1CN(C(=O)OCc2ccccc2)C1 | 103 to 105 °C |
| Cc1n[nH]c(C)c1S(=O)(=O)N1CCN(C)CC1 | 187 to 189 °C |
| O=C1NCCCc2cc(O)ccc21 | 219 to 221 °C |
| O=Cc1cc2ccccc2nc1O | 308 to 310 °C |
| Cc1cc(C(=O)O)c(O)c(S(N)(=O)=O)c1 | 218 to 220 °C |
| Cc1ccc2oc(=O)[nH]c2c1 | 130 to 132 °C |
| Cc1ccc2[nH]c(-c3ccc(Br)cc3)c(CCC(=O)O)c2c1 | 101 to 103 °C |
| O=C(O)c1cc2c(s1)-c1ccccc1CC2 | 212 to 214 °C |
| Nc1nnc(SCc2ccccc2)s1 | 159 to 161 °C |
| Fc1ccccc1-c1nc(CCl)cs1 | 64 to 66 °C |
| NC(=O)CC1CC1 | 125 to 127 °C |
